One experiment concerns the target T1, BRD4 short (Homo sapiens, UniProt O60885).
T1 construct: endogenous in cells; host or cells: HEK293T
Description: BRD4 (short) degradation assay, Western blotting. The experiment is classed as cell-based. The procedure, abridged: (§1)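 Cell lines were grown at 37° C with 5% CO2 (HEK293T and C33A in DMEM, A549 in F-12K, 22RV1, LNCaP and Mino in RPMI-1640, K562 and MV-4-11 in IMDM, all with 10% FBS). Lysates were BCA-normalized, then SDS/PAGE Western blots were probed with target-specific antibodies and read by IR680/IR800 fluorescent secondaries on Li-Cor.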
For orientation: In western blotting, separated proteins are transferred to a membrane and probed.

Another experiment has as its target T2, BRD4 long (Homo sapiens, UniProt O60885).
T2 construct: endogenous in cells; host or cells: HEK293T
Description: BRD4 (long) degradation assay, Western blotting. The experiment is classed as cell-based. A digest of the protocol:
as §1

Where [1] appears, read: second value of cell (long/short).
Setting [2] is: first value of cell (long/short).
The mark [3] stands for this setting: second value of cell, range with lower bound in nM and upper bound in μM.
Where [4] appears, read: first value of cell, range with lower bound in nM and upper bound in μM.

Bounds are passed on as bounds.

For orientation: DC50 means the concentration at which degradation of the target reaches its halfway point. Turning to `COc1ccc(C(=O)/C=C/C(=O)N2CCN(C(=O)C[C@@H]3N=C(c4ccc(Cl)cc4)c4c(sc(C)c4C)-n4c(C)nnc43)CC2)c(Cl)c1` [Compound 240, (S,E)-1-(2-chloro-4-methoxyphenyl)-4-(4-(2-(4-(4-chlorophenyl)-2,3,9-trimethyl-6H-thieno[3,2-f][1,2,4]triazolo[4,3-a][1,4]diazepin-6-yl)acetyl)piperazin-1-yl)but-2-ene-1,4-dione], the DC50 at BRD4 short (setting [1]) is 10 to 100 nM; on BRD4 long (setting [2]), below 10 nM.
The matching figures for `COc1ccc(C(=O)/C=C/C(=O)N[C@H]2C[C@H](NC(=O)C[C@@H]3N=C(c4ccc(Cl)cc4)c4c(sc(C)c4C)-n4c(C)nnc43)C2)c(Cl)c1` [Compound 241, (E)-4-(2-chloro-4-methoxyphenyl)-N-((1S,3r)-3-(2-((S)-4-(4-chlorophenyl)-2,3,9-trimethyl-6H-thieno[3,2-f][1,2,4]triazolo[4,3-a][1,4]diazepin-6-yl)acetamido)cyclobutyl)-4-oxobut-2-enamide]: 180 nM and 90 nM.
The matching figures for `Cc1sc2c(c1C)C(c1ccc(Cl)cc1)=N[C@@H](CC(=O)N1CCN(C(=O)/C=C/C(=O)c3ccc(=O)n(C)c3)CC1)c1nnc(C)n1-2` [Compound 242, (S,E)-1-(4-(2-(4-(4-chlorophenyl)-2,3,9-trimethyl-6H-thieno[3,2-f][1,2,4]triazolo[4,3-a][1,4]diazepin-6-yl)acetyl)piperazin-1-yl)-4-(1-methyl-6-oxo-1,6-dihydropyridin-3-y1)but-2-ene-1,4-dione]: 40 nM and 80 nM.
With `Cc1sc2c(c1C)C(c1ccc(Cl)cc1)=N[C@@H](CC(=O)N[C@H]1C[C@@H](NC(=O)/C=C/C(=O)c3ccc(=O)n(C)c3)C1)c1nnc(C)n1-2` [Compound 243, (E)-N-((1R,3s)-3-(2-((S)-4-(4-chlorophenyl)-2,3,9-trimethyl-6H-thieno[3,2-f][1,2,4]triazolo[4,3-a][1,4]diazepin-6-yl)acetamido)cyclobutyl)-4-(1-methyl-6-oxo-1,6-dihydropyridin-3-yl)-4-oxobut-2-enamide], the 50% degradation concentration (DC50) on BRD4 short (setting [3]) and on BRD4 long (setting [4]) was 100 to 1000 nM throughout.
For the molecule `Cc1sc2c(c1C)C(c1ccc(Cl)cc1)=N[C@@H](CC(=O)N[C@H]1C[C@H](NC(=O)/C=C/C(=O)c3ccc(=O)n(C)c3)C1)c1nnc(C)n1-2` [Compound 244, (E)-N-((1S,3r)-3-(2-((S)-4-(4-chlorophenyl)-2,3,9-trimethyl-6H-thieno[3,2-f][1,2,4]triazolo[4,3-a][1,4]diazepin-6-yl)acetamido)cyclobutyl)-4-(1-methyl-6-oxo-1,6-dihydropyridin-3-yl)-4-oxobut-2-enamide], the figures for the 50% degradation concentration (DC50) at BRD4 short (setting [1]) and at BRD4 long (setting [4]) were 1000 nM and 100 to 1000 nM, respectively.
`Cc1sc2c(c1C)C(c1ccc(Cl)cc1)=N[C@@H](CC(=O)N1CCN(C(=O)/C=C/C(=O)N3CCN(C)CC3)CC1)c1nnc(C)n1-2` [Compound 245, (S,E)-1-(4-(2-(4-(4-chlorophenyl)-2,3,9-trimethyl-6H-thieno[3,2-f][1,2,4]triazolo[4,3-a][1,4]diazepin-6-yl)acetyl)piperazin-1-yl)-4-(4-methylpiperazin-1-yl)but-2-ene-1,4-dione]: the DC50 at BRD4 short (setting [1]) and at BRD4 long (setting [2]) was above 5000 nM in each case.
For the molecule `COc1ccc(NC(=O)/C=C/C(=O)N2CCN(C(=O)C[C@@H]3N=C(c4ccc(Cl)cc4)c4c(sc(C)c4C)-n4c(C)nnc43)CC2)cc1` [Compound 246, (S,E)-4-(4-(2-(4-(4-chlorophenyl)-2,3,9-trimethyl-6H-thieno[3,2-f][1,2,4]triazolo[4,3-a][1,4]diazepin-6-yl)acetyl)piperazin-1-yl)-N-(4-methoxyphenyl)-4-oxobut-2-enamide], the half-maximal degradation concentration (DC50) at BRD4 short (setting [3]) is 100 to 1000 nM; on BRD4 long (setting [2]), above 5000 nM.
Consider `Cc1sc2c(c1C)C(c1ccc(Cl)cc1)=N[C@@H](CC(=O)N1CCN(C(=O)/C=C/C(=O)Nc3cccn(C)c3=O)CC1)c1nnc(C)n1-2` [Compound 247, (S,E)-4-(4-(2-(4-(4-chlorophenyl)-2,3,9-trimethyl-6H-thieno[3,2-f][1,2,4]triazolo[4,3-a][1,4]diazepin-6-yl)acetyl)piperazin-1-yl)-N-(1-methyl-2-oxo-1,2-dihydropyridin-3-yl)-4-oxobut-2-enamide], for which the DC50 at BRD4 short (setting [3]) and at BRD4 long (setting [4]) was 100 to 1000 nM in each case.
Turning to `Cc1sc2c(c1C)C(c1ccc(Cl)cc1)=N[C@@H](CC(=O)N1CCN(C(=O)/C=C/C(=O)N3CCOCC3)CC1)c1nnc(C)n1-2` [Compound 248, (S,E)-1-(4-(2-(4-(4-chlorophenyl)-2,3,9-trimethyl-6H-thieno[3,2-f][1,2,4]triazolo[4,3-a][1,4]diazepin-6-yl)acetyl)piperazin-1-yl)-4-morpholinobut-2-ene-1,4-dione], the DC50 on BRD4 short (setting [1]) and on BRD4 long (setting [2]) was above 5000 nM each time.
Regarding `Cc1sc2c(c1C)C(c1ccc(Cl)cc1)=N[C@@H](CC(=O)N[C@H]1C[C@@H](NC(=O)/C=C/C(=O)N3CCOCC3)C1)c1nnc(C)n1-2` [Compound 249, (E)-N-((1R,3s)-3-(2-((S)-4-(4-chlorophenyl)-2,3,9-trimethyl-6H-thieno[3,2-f][1,2,4]triazolo[4,3-a][1,4]diazepin-6-yl)acetamido)cyclobutyl)-4-morpholino-4-oxobut-2-enamide], the DC50 at BRD4 short (setting [1]) and at BRD4 long (setting [2]) was above 5000 nM each time.
Take `Cc1sc2c(c1C)C(c1ccc(Cl)cc1)=N[C@@H](CC(=O)N[C@H]1C[C@H](NC(=O)/C=C/C(=O)N3CCOCC3)C1)c1nnc(C)n1-2` [Compound 250, (E)-N-((1S,3r)-3-(2-((S)-4-(4-chlorophenyl)-2,3,9-trimethyl-6H-thieno[3,2-f][1,2,4]triazolo[4,3-a][1,4]diazepin-6-yl)acetamido)cyclobutyl)-4-morpholino-4-oxobut-2-enamide]: the DC50 at BRD4 short (setting [1]) and on BRD4 long (setting [2]) was above 5000 nM each time.
Turning to `COc1ccc2c(c1)CCCN2C(=O)/C=C/C(=O)N1CCN(C(=O)C[C@@H]2N=C(c3ccc(Cl)cc3)c3c(sc(C)c3C)-n3c(C)nnc32)CC1` [Compound 251, (S,E)-1-(4-(2-(4-(4-chlorophenyl)-2,3,9-trimethyl-6H-thieno[3,2-f][1,2,4]triazolo[4,3-a][1,4]diazepin-6-yl)acetyl)piperazin-1-yl)-4-(6-methoxy-3,4-dihydroquinolin-1(2H)-yl)but-2-ene-1,4-dione], the half-maximal degradation concentration (DC50) on BRD4 short (setting [1]) was 10 to 100 nM; on BRD4 long (setting [2]) it was above 5000 nM.
The matching figures for `COc1ccc2c(c1)CCN(C(=O)/C=C/C(=O)N1CCN(C(=O)C[C@@H]3N=C(c4ccc(Cl)cc4)c4c(sc(C)c4C)-n4c(C)nnc43)CC1)C2` [Compound 252, (S,E)-1-(4-(2-(4-(4-chlorophenyl)-2,3,9-trimethyl-6H-thieno[3,2-f][1,2,4]triazolo[4,3-a][1,4]diazepin-6-yl)acetyl)piperazin-1-yl)-4-(6-methoxy-3,4-dihydroisoquinolin-2(1H)-y1)but-2-ene-1,4-dione]: above 5000 nM and above 5000 nM.
The matching figures for `Cc1sc2c(c1C)C(c1ccc(Cl)cc1)=N[C@@H](CC(=O)NC1CC(NC(=O)/C=C/C(=O)N3CC4(COC4)C3)C1)c1nnc(C)n1-2` (stereo partly drawn) [Compound 253, (S,E)-N-(3-(2-(4-(4-chlorophenyl)-2,3,9-trimethyl-6H-thieno[3,2-f][1,2,4]triazolo[4,3-a][1,4]diazepin-6-yl)acetamido)cyclobutyl)-4-oxo-4-(2-oxa-6-azaspiro[3.3]heptan-6-yl)but-2-enamide]: above 5000 nM and above 5000 nM.

The values are drawn from patent US20260200939A1, “MOLECULAR GLUE DEGRADER COMPOUNDS AND USES THEREOF” (Novartis AG, priority 2022, published 2026).
